Test results from patent US10919935B2, “Antimicrobial peptide derived from myxinidin peptide and uses thereof” (INDUSTRY-ACADEMIC COOPERATION FOUNDATION, CHOSUN UNIVERSITY, priority 2015, dated 2021).
Residues, ends and D or L forms follow the SMILES beside them.

Tests used:
P. aeruginosa [1] = assay: Anti-biofilm activity (crystal violet); assay type: cell-based, Pseudomonas aeruginosa
Description: (§1) To compare the antimicrobial activity of the peptide produced by the method of Example 1, the inventors of the present invention measured the biofilm inhibitory concentration value of the peptide showing no dissociation of bacterial cells.
(§2) Specifically, the Gram-negative bacteria and Gram-positive bacteria among the bacterial strains described in the above Table 2 were cultured in each medium to a mid-log phase. Then, after dilution to bacterial cell concentration of 5×10^5 cells/100 μl, the cells were inoculated to a microtiter plate (NUNC, USA). Thereafter, myxinidin 1, myxinidin 2, or myxinidin 3 peptides which have been synthesized in Example 1 above was diluted, 1/10 times for each, with physiological saline (PBS) solution in a 96-well plate. After adding the cells to a plate, the cells were cultured for 12 hours at 37° C. After removing the supernatant, the cells were fixed with 100% methanol and reacted for 2 hours with Crystal violet staining solution followed by rinsing for 3 times. Then, after dissolving in 95% ethanol, the absorbance was measured at a wavelength of 595 nm by using a microtiter plate reader (Merck Elisa reader, Germany) to determine the biofilm inhibitory concentration value of each bacterial strain. As a control group, myxinidin as a mother peptide was subjected to the same processes as above and the biofilm inhibitory concentration value of each bacterial strain was obtained.

S. aureus [2] = assay: Anti-biofilm activity (crystal violet); assay type: cell-based, Staphylococcus aureus
Description: as §1, §2

in vitro = assay type: cell-based; conditions: human, NHK cells (normal human keratinocytes)
Description: To determine the cytotoxicity of the peptide produced by the method of Example 1 in normal cell line, toxicity was measured by using NHK cells (Normal Human Keratinocyte cells).
Specifically, NHK cells which have been cultured in Epilife medium with 60 μM calcium (Gibco, USA) containing 10% HKGS (Human Keratinocyte Growth Supplement) (Gibco, USA) were aliquoted in a 96-well plate to have 1×10^4 cells per well. After culturing them for 24 hours, the cells were subjected to a treatment with myxinidin, myxinidin 1, myxinidin 2, or myxinidin 3 peptide, each at concentration of 3.125, 6.25, 12.5, or 25.0 μM/well, followed by reaction for 24 hours in a 5% CO2 incubator. After the culture, a reaction solution containing 5 mg/ml MTT (Thiazolyl Blue Tetrazolium Bromide) dissolved in physiological saline (PBS) was added in an amount of 20 μl to each well and allowed to react for 4 hours. After that, the supernatant was removed, and, by dissolving MTT crystals that are formed by adding 200 μl of DMSO, the absorbance at 560 nm was measured to determine the cell survival ability.

S. aureus 3114 = assay: MIC at salt concentration (Example 3); assay type: cell-based, Staphylococcus aureus
Description: as §1, with “minimum growth” for “biofilm”, “(MIC), which is minimum concentration” for “value”, “cells, at salt concentration.” for “cells.”
(§3) Specifically, the bacterial strain described in the above Table 2 was cultured in each medium to a mid-log phase. Then, after dilution to bacterial cell concentration of 2×10^5 cells/100 μl, the cells were inoculated to a microtiter plate (NUNC, USA). Thereafter, myxinidin 1, myxinidin 2, or myxinidin 3 peptides which have been synthesized in Example 1 above was diluted, 1/2 times for each, with BSA+150 mM sodium chloride (NaCl) solution, physiological saline (PBS) solution, or 10 mM sodium phosphate (SP) solution in a 96-well plate. After adding the cells to a plate, the cells were cultured for 12 hours at 37° C. By using a microtiter plate reader (Merck Elisa reader, Germany), the absorbance was measured at a wavelength of 600 nm to determine the MIC value of each bacterial strain. As a control group, myxinidin as a mother peptide was subjected to the same processes as above and the MIC value of each bacterial strain was obtained.

S. aureus 3709 = assay: MIC at salt concentration (Example 3); assay type: cell-based, Staphylococcus aureus
Description: as §1, with “minimum growth” for “biofilm”, “(MIC), which is minimum concentration” for “value”, “cells, at salt concentration.” for “cells.”
as §3

S. aureus [3] = assay: MIC at salt concentration (Example 3); assay type: cell-based, Staphylococcus aureus
Description: as §1, with “minimum growth” for “biofilm”, “(MIC), which is minimum concentration” for “value”, “cells, at salt concentration.” for “cells.”
as §3

S. typhimurium = assay: MIC at salt concentration (Example 3); assay type: cell-based, Salmonella typhimurium
Description: as §1, with “minimum growth” for “biofilm”, “(MIC), which is minimum concentration” for “value”, “cells, at salt concentration.” for “cells.”
as §3

S. typhimurium 8013 = assay: MIC at salt concentration (Example 3); assay type: cell-based, Salmonella typhimurium
Description: as §1, with “minimum growth” for “biofilm”, “(MIC), which is minimum concentration” for “value”, “cells, at salt concentration.” for “cells.”
as §3

S. typhimurium 8009 = assay: MIC at salt concentration (Example 3); assay type: cell-based, Salmonella typhimurium
Description: as §1, with “minimum growth” for “biofilm”, “(MIC), which is minimum concentration” for “value”, “cells, at salt concentration.” for “cells.”
as §3

L. monocytogenes [4] = assay: Anti-biofilm activity (crystal violet); assay type: cell-based, Listeria monocytogenes
Description: as §1, §2

P. aeruginosa 5018 = assay: MIC at salt concentration (Example 3); assay type: cell-based, Pseudomonas aeruginosa
Description: as §1, with “minimum growth” for “biofilm”, “(MIC), which is minimum concentration” for “value”, “cells, at salt concentration.” for “cells.”
as §3

P. aeruginosa 3592 = assay: MIC at salt concentration (Example 3); assay type: cell-based, Pseudomonas aeruginosa
Description: as §1, with “minimum growth” for “biofilm”, “(MIC), which is minimum concentration” for “value”, “cells, at salt concentration.” for “cells.”
as §3

P. aeruginosa [5] = assay: MIC at salt concentration (Example 3); assay type: cell-based, Pseudomonas aeruginosa
Description: as §1, with “minimum growth” for “biofilm”, “(MIC), which is minimum concentration” for “value”, “cells, at salt concentration.” for “cells.”
as §3

L. monocytogenes [6] = assay: MIC at salt concentration (Example 3); assay type: cell-based, Listeria monocytogenes
Description: as §1, with “minimum growth” for “biofilm”, “(MIC), which is minimum concentration” for “value”, “cells, at salt concentration.” for “cells.”
as §3

[7] = NaCl (BSA+150 mM sodium chloride)

For CC[C@H](C)[C@H](NC(=O)CN)C(=O)N[C@@H](Cc1c[nH]cn1)C(=O)N[C@@H](Cc1c[nH]cn1)C(=O)N[C@H](C(=O)N[C@@H](CC(C)C)C(=O)N[C@@H](CCCCN)C(=O)N[C@@H](Cc1ccc(O)cc1)C(=O)NCC(=O)N[C@@H](CCCCN)C(=O)N1CCC[C@H]1C(=O)N[C@@H](CO)C(N)=O)[C@@H](C)CC [Myxinidin 1, GIHHILKYGKPS-NH2] (H-GIHHILKYGKPS-NH2; N-terminus assumed), the Biofilm forming ability (P. aeruginosa [1]; peptide 0.25 μM) was 100%, the Biofilm forming ability (P. aeruginosa [1]; peptide 0.5 μM) was 100% and the Biofilm forming ability (P. aeruginosa [1]; peptide 1 μM) was 94%. It also gave a Biofilm forming ability (P. aeruginosa [1]; peptide 2 μM) of 93%, a Biofilm forming ability (P. aeruginosa [1]; peptide 4 μM) of 92% and a Biofilm forming ability (P. aeruginosa [1]; peptide 8 μM) of 92%. For the same compound, the Biofilm forming ability (P. aeruginosa [1]; peptide 16 μM) was 89%, the Biofilm forming ability (P. aeruginosa [1]; peptide 32 μM) was 88% and the Biofilm forming ability (S. aureus [2]; peptide 0.25 μM) was 98%. It also gave a Biofilm forming ability (S. aureus [2]; peptide 0.5 μM) of 88%, a Biofilm forming ability (S. aureus [2]; peptide 1 μM) of 87% and a Biofilm forming ability (S. aureus [2]; peptide 2 μM) of 86%. The Biofilm forming ability (S. aureus [2]; peptide 4 μM) was 83%, the Biofilm forming ability (S. aureus [2]; peptide 8 μM) was 83% and the Biofilm forming ability (S. aureus [2]; peptide 16 μM) was 79%. It also gave a Biofilm forming ability (S. aureus [2]; peptide 32 μM) of 75%, a viability at 24 h, 3.125 µM (in vitro) of 100% and a viability at 24 h, 6.25 µM (in vitro) of 96%. The viability at 24 h, 12.5 µM (in vitro) was 96%, the viability at 24 h, 25 µM (in vitro) was 88% and the “Antimicrobial activity (MIC) according to salt concentration” value (“Antimicrobial activity (MIC) according” for short) (S. aureus 3114; [7]) was >32. The “Antimicrobial activity (MIC) according” value (S. aureus 3114; PBS) was >32, the “Antimicrobial activity (MIC) according” value (S. aureus 3114; SP (10 mM sodium phosphate)) was >32 and the “Antimicrobial activity (MIC) according” value (S. aureus 3709; [7]) was >32. The “Antimicrobial activity (MIC) according” value (S. aureus 3709; PBS) was >32, the “Antimicrobial activity (MIC) according” value (S. aureus 3709; SP (10 mM sodium phosphate)) was >32 and the “Antimicrobial activity (MIC) according” value (S. aureus [3]; [7]) was >32. The “Antimicrobial activity (MIC) according” value (S. aureus [3]; PBS) was >32, the “Antimicrobial activity (MIC) according” value (S. aureus [3]; SP (10 mM sodium phosphate)) was >32 and the “Antimicrobial activity (MIC) according” value (S. typhimurium; [7]) was >32. For the same compound, the “Antimicrobial activity (MIC) according” value (S. typhimurium; PBS) was >32, the “Antimicrobial activity (MIC) according” value (S. typhimurium; SP (10 mM sodium phosphate)) was >32 and the “Antimicrobial activity (MIC) according” value (S. typhimurium 8013; [7]) was >32. For the same compound, the “Antimicrobial activity (MIC) according” value (S. typhimurium 8013; PBS) was >32, the “Antimicrobial activity (MIC) according” value (S. typhimurium 8013; SP (10 mM sodium phosphate)) was >32 and the “Antimicrobial activity (MIC) according” value (S. typhimurium 8009; [7]) was >32. For the same compound, the “Antimicrobial activity (MIC) according” value (S. typhimurium 8009; PBS) was >32, the “Antimicrobial activity (MIC) according” value (S. typhimurium 8009; SP (10 mM sodium phosphate)) was >32 and the Biofilm forming ability (L. monocytogenes [4]; peptide 0.25 μM) was 100%. For the same compound, the Biofilm forming ability (L. monocytogenes [4]; peptide 0.5 μM) was 100%, the Biofilm forming ability (L. monocytogenes [4]; peptide 1 μM) was 100% and the Biofilm forming ability (L. monocytogenes [4]; peptide 2 μM) was 100%. For the same compound, the Biofilm forming ability (L. monocytogenes [4]; peptide 4 μM) was 99%, the Biofilm forming ability (L. monocytogenes [4]; peptide 8 μM) was 98% and the Biofilm forming ability (L. monocytogenes [4]; peptide 16 μM) was 97%. For the same compound, the Biofilm forming ability (L. monocytogenes [4]; peptide 32 μM) was 93%, the “Antimicrobial activity (MIC) according” value (P. aeruginosa 5018; [7]) was >32 and the “Antimicrobial activity (MIC) according” value (P. aeruginosa 5018; PBS) was >32. The “Antimicrobial activity (MIC) according” value (P. aeruginosa 5018; SP (10 mM sodium phosphate)) was >32, the “Antimicrobial activity (MIC) according” value (P. aeruginosa 3592; [7]) was >32 and the “Antimicrobial activity (MIC) according” value (P. aeruginosa 3592; PBS) was >32. The “Antimicrobial activity (MIC) according” value (P. aeruginosa 3592; SP (10 mM sodium phosphate)) was >32, the “Antimicrobial activity (MIC) according” value (P. aeruginosa [5]; [7]) was >32 and the “Antimicrobial activity (MIC) according” value (P. aeruginosa [5]; PBS) was >32. For the same compound, the “Antimicrobial activity (MIC) according” value (P. aeruginosa [5]; SP (10 mM sodium phosphate)) was >32, the “Antimicrobial activity (MIC) according” value (L. monocytogenes [6]; [7]) was >32 and the “Antimicrobial activity (MIC) according” value (L. monocytogenes [6]; PBS) was >32. For the same compound, the “Antimicrobial activity (MIC) according” value (L. monocytogenes [6]; SP (10 mM sodium phosphate)) was >32.
